The values below come from patent US8557233B2, “Probiotic bifidobacterium strains” (Alimentary Heath Limited, priority 2007, dated 2013).

This assay deals with B. longum AH1206. The experiment in a line: Minimum inhibitory concentration (MIC) of antibiotics. The format is cell-based, Bifidobacterium longum. The note with it: against B. longum AH1206. How it is done: Antibiotic sensitivity profiles of the B. longum strain was determined using the ‘disc susceptibility’ assay. Cultures were grown up in the appropriate broth medium for 24-48 h spread-plated (100 μl) onto agar media and discs containing known concentrations of the antibiotics were placed onto the agar. Strains were examined for antibiotic sensitivity after 1-2 days incubation at 37° C. under anaerobic conditions. Strains were considered sensitive if zones of inhibition of 1 mm or greater were seen. The minimum inhibitory concentration (MIC) for each antibiotic was independently assessed.
As to `CCC[C@@H]1C[C@@H](C(=O)N[C@@H]([C@H]2O[C@H](SC)[C@H](O)[C@@H](O)[C@H]2O)[C@H](C)Cl)N(C)C1` [clindamycin], the “minimum inhibitory concentration (MIC)” value is given as 0.32.

For the compound `CN[C@H](CC(C)C)C(=O)N[C@H]1C(=O)N[C@@H](CC(N)=O)C(=O)N[C@H]2C(=O)N[C@H]3C(=O)N[C@H](C(=O)N[C@H](C(=O)O)c4cc(O)cc(O)c4-c4cc3ccc4O)[C@H](O)c3ccc(c(Cl)c3)Oc3cc2cc(c3O[C@@H]2O[C@H](CO)[C@@H](O)[C@H](O)[C@H]2O[C@H]2C[C@](C)(N)[C@H](O)[C@H](C)O2)Oc2ccc(cc2Cl)[C@H]1O` [vancomycin], the “minimum inhibitory concentration (MIC)” value worked out at 0.75.

For `Cc1ncc([N+](=O)[O-])n1CCO` [metronidazole], the “minimum inhibitory concentration (MIC)” value was 0.38.
